This is an account of results in patent US11905268B2, “Anthranilic acid derivatives and their use in the treatment of human cancers” (UNIVERSITY OF CENTRAL FLORIDA RESEARCH FOUNDATION, INC., priority 2018, dated 2024).

Data set [1] in a line: Microsomal stability, mouse. It is filed as in vitro ADME.
The nature of a further data set: Plasma stability, human. It is filed as in vitro ADME.
Data set [2] relates to L3.6pl cells. The experiment in a line: Ant44 assay in L3.6pl cells. The class given is cell-based, human. Conditions: for EC50: Homo sapiens, L3.6pl. As for the experimental part: For example, in the ANT44 assay an EC48=9 means that the PTI molecule at 9 μM was able to block 48% of the Ant44 entry into L3.6 pl human Pancreatic ductal adenocarcinoma cells after 72 h incubation time at 37° C. Another explanation, is that the PTI was able to disrupt […] of the intracellular trafficking of Ant44 that leads to toxicity. Recall a polyamine transport inhibitor can work at any one (or more than one) of the different steps involved in the multi-step polyamine import and intracellular trafficking process. Blocking the entering spermidine from reaching its intended intracellular target is another way in which these compounds may function.
(§1) The higher EC value denotes the compound is giving a relative % growth of L3.6 pl cells consistent with inhibiting either Ant44 uptake or blocking the uptake of the rescuing dose of spermidine. Alternatively these compounds may disrupting the intracellular trafficking of Ant44 and spermidine so they cannot reach their intended intracellular target.

The nature of data set [3]: Microsomal stability, human. The class given is in vitro ADME.
The nature of the next data set: Plasma stability, mouse. It is filed as in vitro ADME.
Data set [4] deals with L3.6pl cells. Briefly: cells. It is filed as cell-based. Conditions: for IC50: Homo sapiens, L3.6pl; for L3.6pl MTC: maximum tolerated concentration where cells are >90% viable.
A short description of a further data set: Plasma stability, rat. The class given is in vitro ADME.
Data set [5] in a line: Microsomal stability, rat. It is filed as in vitro ADME.
The nature of the next data set: Solubility. The conditions noted are these: for solubility: PBS. It is filed as physicochemical.
Data set [6] concerns DFMO treated Chinese hamster ovary (CHO) cells. The experiment in a line: DFMO/spermidine rescue assay in CHO cells (Assay 2). It is filed as cell-based. Conditions: for EC50 / IC50: Cricetulus griseus; for EC50: Table 2.
Data set [7] deals with CHO cells. Briefly: Ant44 rescue assay in CHO cells (Assay 1). Conditions: for EC50 / IC50: Cricetulus griseus; for Active in Ant44 assay?: Table 2, in CHO. It is filed as cell-based, Chinese hamster.
Data set [8] relates to CHO cells. The experiment in a line: Cytotoxicity screen in CHO cells. The conditions noted are these: for IC50 at 48 h: Chinese hamster, CHO K1 cells.
In data set [9] the test system is L3.6pl cells. Briefly: DFMO/Spd rescue assay in L3.6pl cells. It is filed as cell-based, human. As for the experimental part: In another example in the DFMO spermidine (Spd) rescue assay an EC38=8 means that the PTI molecule at 8 μM was able to block 38% of the entry of spermidine into DFMO treated L3.6 pl cells after 72 h incubation time at 37° C. Another explanation, is that the PTI was able to disrupt […] of the intracellular trafficking of Spd that leads to cell rescue. […] Since both Ant44 and Spermidine are polyamine-based systems, cells likely use one mode of the polyamine transport (basal or obligate) in each assay.
as §1

Where [10] appears, read: summary of Table 6 (human, mouse, rat).
Where [11] appears, read: relative growth after 72 h, read-out: L3.6pl IC50.
The mark [12] stands for this setting: CHO, Table 2, Active in Ant44 assay?, read-out: Ant44 assay EC50 in CHO.
Setting [13] is: CHO, Table 7, read-out: SAR IC50 Ant44 assay.
Where [14] appears, read: Table 4B, CHO cells, read-out: Ant44 IC50.
The mark [15] stands for this setting: read-out: IC50 values (toxicity profile).
[16] abbreviates: CHO, Table 7, read-out: SAR IC50 DFMO assay.

≈ marks a conversion by molar mass, not a printed value. Like-named read-outs stand apart in the source and are kept apart here.

Regarding `COc1ccc(C(=O)Nc2ccc(N3CCN(c4ccccc4OC)CC3)cc2C(=O)O)cc1` [SBI-0800678], the “Microsomal Stability % remaining at 1 hour” value in data set [1] was 60.4%; in [3] (Human), 52.0%; in data set [5], 58.0%. The “Plasma Stability % remaining at 3 hours” value is listed as 88.0% in the data set “Plasma stability, human” (Human); 83.1% in “Plasma stability, mouse”; 55.3% in the data set “Plasma stability, rat”. Moreover, the “plasma stability” value in the data set “Plasma stability, human” (setting [10]) is recorded as “good”. Further, the “worked in Assay 1 (Ant44)” value in the data set on L3.6pl cells [2] was “worked”. In data set [3] (setting [10]), the “microsomal stability” value is “good”. Moreover, the IC50 with L3.6pl cells [4] (setting [11]) is 13.3 ± 0.04 µM; in data set [6] (Table 1 HTS top hits, CHO cells, read-out: DFMO Assay IC50), 15 to 25 µM; in the data set on CHO cells [7] (setting [13]) it was 9 µM; in the data set with CHO cells [7] (setting [14]), 9 µM. For the same compound, the “L3.6pl MTC” value in the data set with L3.6pl cells [4] came out at 6 µM. Besides, the “solubility in PBS” value in the data set “Solubility” is given as “poorly soluble”. In addition, the solubility in “Solubility” (aqueous buffer, pH 5.0) is 0.3 µg/mL (≈ 0.65 µM); in the data set “Solubility” (pH 6.2, aqueous buffer) it was 0.1 µg/mL (≈ 0.217 µM); in the data set “Solubility” (pH 7.4, aqueous buffer) it was over 0.1 µg/mL. Moreover, the EC50 is about 25 µM in data set [6] (CHO); about 20 µM with CHO cells [7] (setting [12]); 20 µM in the data set on CHO cells [7] (Table 1 HTS top hits, CHO cells, read-out: Ant44 EC50). The “Active in Ant44 assay?” value in the data set with CHO cells [7] is reported as “Yes”. Besides, in the data set on CHO cells [8], the IC50 at 48 h was over 40 µM. Moreover, in the data set on CHO cells [8] (hamster), the “CHO MTD” value is over 32 µM. Besides, the “Tox (Ant44)” value in the data set on CHO cells [8] (toxic above the stated concentration, CHO cells, listed with Ant44 assay) is recorded as “SBI- 0800678.0001 (20 EC50) Tox >20 μM”. The “tox (DFMO Assay)” value in the data set with CHO cells [8] (toxic above the stated concentration, CHO cells, listed with DFMO assay) was over 15 µM.

Take `COc1ccccc1C(=O)Nc1ccc(N2CCC(Oc3ccccc3)CC2)cc1C(=O)O` [SBI-0814420, 2-(2-methoxybenzamido)-5-(4-phenoxypiperidin-1-yl)benzoic acid]: the “worked in Assay 1 (Ant44)” value in the data set with L3.6pl cells [2] is recorded as “performed in both assays”. Further, the “worked in Assay 2 (DFMO)” value in the data set with L3.6pl cells [9] is on record as “performed in both assays”. Moreover, the IC50 in the data set with L3.6pl cells [4] (setting [15]) was over 38 µM; in the data set with L3.6pl cells [4] (setting [11]), 38.6 ± 0.06 µM; in data set [6] (setting [16]), 19 µM; in the data set on CHO cells [7] (setting [13]), 32 µM. The “L3.6pl MTC” value with L3.6pl cells [4] worked out at 10 µM. This compound had an IC50 at 48 h with CHO cells [8] of over 40 µM.

Turning to `O=C(Nc1ccc(N2CCN(c3ccccn3)CC2)cc1C(=O)O)c1ccco1` [SBI-0814419, 2-(furan-2-carboxamido)-5-(4-(pyridin-2-yl)piperazin-1-yl)benzoic acid], in the data set on L3.6pl cells [2], the “worked in Assay 1 (Ant44)” value is reported as “performed in both assays”. For the same compound, the EC50 in the data set on L3.6pl cells [2] (Table 3, read-out: Ant44 rescue EC50 L3.6pl) is 10 µM; with L3.6pl cells [2] (Table 5B, Ant44 blockade, read-out: L3.6pl EC50), 10 µM; in the data set with CHO cells [7] (CHO, Table 3, read-out: Ant44 rescue EC50 CHO), over 32 µM. For the same compound, the “worked in Assay 2 (DFMO)” value with L3.6pl cells [9] is listed as “performed in both assays”. In addition, the “Active in DFMO assay?” value was “No in CHO and in L3.6pl” in the data set with L3.6pl cells [9] (Table 3, in L3.6pl); “No in CHO and in L3.6pl” in data set [6] (Table 3, in CHO). In addition, the IC50 with L3.6pl cells [4] (setting [15]) was over 38 µM; with L3.6pl cells [4] (setting [11]) it was over 50 µM; in data set [6] (setting [16]), over 40 µM; in the data set with CHO cells [7] (setting [13]), over 40 µM. In addition, the “MTD L3.6pl” value with L3.6pl cells [4] (Table 3) is over 20 µM. Further, the “L3.6pl MTD” value in the data set on L3.6pl cells [4] (Table 5B) is recorded as “(>10) uM”. The “L3.6pl MTC” value in the data set on L3.6pl cells [4] is 12 µM. In addition, the “Ant44 IC50” value with CHO cells [7] (Table 5B, CHO cells) is recorded as “trace”. For the same compound, the IC50 at 48 h in the data set on CHO cells [8] is over 40 µM. Moreover, the “MTD CHO” value with CHO cells [8] (hamster) is over 32 µM.

As to `COc1ccccc1C(=O)Nc1ccc(N2CCC(c3ccccc3)CC2)cc1C(=O)O` [SBI-0814418, 2-(2-methoxybenzamido)-5-(4-phenylpiperidin-1-yl)benzoic acid], the “Active in Ant44 assay?” value is “no” in the data set with L3.6pl cells [2] (Table 2, in L3.6pl) and “Yes” in the data set on CHO cells [7]. The “activity in DFMO assay run in L3.6 pl” value in the data set on L3.6pl cells [9] is recorded as “micromolar activity”. The EC50 was 5 µM in the data set with L3.6pl cells [9] (Homo sapiens, Table 2, DFMO rescue in L3.6pl); 21 µM in [6] (CHO); 19 µM in the data set on CHO cells [7] (setting [12]). The “L3.6pl MTD” value with L3.6pl cells [4] (Table 2) is 5 µM; with L3.6pl cells [4] (Table 4B), “(5-10) μM”. In addition, the “L3.6pl MTD cell: percentage at 10 μM” value in the data set with L3.6pl cells [4] (at 10 μM) was 80%. The “activity in DFMO assay” value in data set [6] (CHO cells) is recorded as “modest activity”. Moreover, the IC50 stood at 21 µM in [6] (CHO, Table 4B, read-out: DFMO/CHO IC50); 21 µM in data set [6] (setting [16]); 18 µM in the data set with CHO cells [7] (setting [13]); 19 µM in the data set with CHO cells [7] (setting [14]). In addition, the “activity in Ant44 assay” value in the data set on CHO cells [7] (CHO cells) is given as “modest activity”. The “general toxicity” value in the data set with CHO cells [8] (CHO cells) was “without general toxicity”. The IC50 at 48 h with CHO cells [8] is over 40 µM. In the data set on CHO cells [8] (hamster), the “CHO MTD” value was over 32 µM.

The solubility is the concentration that dissolves in the medium under given conditions. Read a low solubility as little dissolved substance. As usually defined, the EC50 is the concentration needed to bring the measured effect to its halfway point.
